Each structure is given as a SMILES string. Converted amounts (≈) assume the structure as drawn. Where two headings read alike, the source gives them in different places. Starred links: 1 amine or outer side, 2 acyl side, 3 side chain; linkers in the order of their positions; H or OH if unused. Positions of bridges follow the written chain, without caps; N, C: chain ends. Residues, ends and D or L forms follow the SMILES beside them. *: point of attachment. C20 diacid = O=C(O)CCCCCCCCCCCCCCCCCCC(=O)*; C18 diacid = O=C(O)CCCCCCCCCCCCCCCCC(=O)*; γGlu = O=C(O)[C@H](CCC(=O)[*:2])N[*:1]

A word on the EC50: it is the concentration that produces a half-maximal response. A word on the solubility: it is the concentration that dissolves in the medium under given conditions.

The target in series [1] is T1, human calcitonin receptor (Homo sapiens, UniProt P30988).
T1 construct: expressed in transfected cells; host or cells: BHK570
T1 sequence (P30988 25-474): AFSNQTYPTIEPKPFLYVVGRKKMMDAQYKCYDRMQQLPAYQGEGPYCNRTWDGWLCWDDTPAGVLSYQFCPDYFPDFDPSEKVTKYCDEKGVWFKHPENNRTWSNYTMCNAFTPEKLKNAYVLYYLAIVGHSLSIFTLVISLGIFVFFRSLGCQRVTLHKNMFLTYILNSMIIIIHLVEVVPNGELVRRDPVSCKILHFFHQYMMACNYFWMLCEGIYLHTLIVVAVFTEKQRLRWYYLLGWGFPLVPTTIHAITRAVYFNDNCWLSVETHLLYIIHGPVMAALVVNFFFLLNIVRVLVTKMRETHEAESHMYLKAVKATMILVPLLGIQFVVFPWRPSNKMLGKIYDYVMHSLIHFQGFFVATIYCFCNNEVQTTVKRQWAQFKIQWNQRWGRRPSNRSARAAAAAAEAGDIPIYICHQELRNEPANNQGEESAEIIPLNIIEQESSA
Briefly: Assay (II)a functional CRE-luciferase assay, human calcitonin receptor. It counts as cell-based. The settings on record: Table 7; human calcitonin (CTa) receptor.

A short description of series [2]: Assay (III) ThT fibrillation assay for physical stability. Format: physicochemical. The settings on record: ThT fibrillation assay. The essentials: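 Freshly prepared formulations, pH-adjusted, with 1 μM ThT; four or eight replicates incubated at 37 °C under 960 rpm orbital shaking. Fluorescence (ex 444/em 485 nm) read every 20 min; […]. Peptide concentration measured by RP-HPLC before and after the run.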

Series [3] has as its target T2, human amylin receptor (amylin 3(a) receptor: human calcitonin receptor + RAMP-3) (Homo sapiens, UniProt O60896+P30988).
T2 construct: expressed in transfected cells; host or cells: BHK570
T2 sequence (P30988 25-474): T1 sequence (P30988 25-474)
T2 sequence (O60896 24-148 partner): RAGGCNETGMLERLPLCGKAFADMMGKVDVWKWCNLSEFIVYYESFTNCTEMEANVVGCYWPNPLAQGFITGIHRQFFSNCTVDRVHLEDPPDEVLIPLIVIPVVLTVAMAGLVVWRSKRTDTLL
Briefly: Assay (II)a functional CRE-luciferase assay, human amylin receptor. The note with it: Table 2; BHK amylin 3(a)-receptor/CRE-luc cells. Format: cell-based.

A short description of series [4]: Assay (IV) determination of solubility. Format: physicochemical. The essentials: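 Polypeptide in water (~500 nmol/ml stock) was mixed 1:1 with 100 mM buffers from pH 3.0 to 8.0 (glycylglycine pH 3.0–5.0; bistrispropane pH 6.0–8.0). After 18 hours at room temperature, samples were centrifuged and the polypeptide remaining in solution was quantified by HPLC.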
Setting [5] is: pH 3.0, read-out: Solubility pH 3.0.
The mark [6] stands for this setting: pH 4.0, read-out: Solubility pH 4.0.
Where [7] appears, read: pH 5.0, read-out: Solubility pH 5.0.
Setting [8] is: pH 6.0, read-out: Solubility pH 6.0.
The mark [9] stands for this setting: pH 6.5, read-out: Solubility pH 6.5.
The mark [10] stands for this setting: pH 7.0, read-out: Solubility pH 7.0.
The mark [11] stands for this setting: pH 7.5, read-out: Solubility pH 7.5.
The mark [12] stands for this setting: pH 8.0, read-out: Solubility pH 8.0.

In the case of `CC[C@H](C)[C@H](NC(=O)[C@@H]1CCCN1C(=O)CNC(=O)[C@H](Cc1ccccc1)NC(=O)[C@H](CC(N)=O)NC(=O)[C@H](CC(N)=O)NC(=O)[C@H](CO)NC(=O)[C@H](CO)NC(=O)[C@H](CCCNC(=N)N)NC(=O)[C@H](Cc1c[nH]cn1)NC(=O)[C@H](CC(C)C)NC(=O)[C@H](Cc1ccccc1)NC(=O)[C@H](CCC(=O)O)NC(=O)[C@H](C)NC(=O)[C@H](CC(C)C)NC(=O)[C@H](CCCNC(=N)N)NC(=O)[C@H](CCC(N)=O)NC(=O)[C@@H](NC(=O)[C@H](C)NC(=O)[C@@H]1CSSC[C@H](NC(=O)[C@H](CCC(=O)O)NC(=O)CC[C@H](NC(=O)CCCCCCCCCCCCCCCCCCC(=O)O)C(=O)O)C(=O)N[C@@H](CC(N)=O)C(=O)N[C@@H]([C@@H](C)O)C(=O)N[C@@H](C)C(=O)N[C@@H]([C@@H](C)O)C(=O)N1)[C@@H](C)O)C(=O)N[C@@H](CC(C)C)C(=O)N1CCC[C@H]1C(=O)N1CCC[C@H]1C(=O)N[C@H](C(=O)N[C@@H](CC(N)=O)C(=O)N[C@H](C(=O)NCC(=O)N[C@@H](CO)C(=O)N[C@@H](CC(N)=O)C(=O)N[C@H](C(=O)N[C@@H](Cc1ccc(O)cc1)C(N)=O)[C@@H](C)O)C(C)C)[C@@H](C)O` [Example 5, N-alpha-[(S)-4-Carboxy-4-(19-carboxynonadecanoylamino)butyryl]-[Glu1,Glu14,His17,Arg18]-pramlintide] ({C20 diacid-γGlu}-ECNTATCATQRLAEFLHRSSNNFGPILPPTNVGSNTY-NH2; disulfide 2-7 (inferred); C-terminus assumed), the EC50 came out at 1.65 nM in series [1] and 0.353 nM in series [3]. In addition, the “ThT pH 4.0 lag time (h)” value in series [2] is on record as 4.4 h. For the same molecule, the solubility at 18 h in series [4] (setting [5]) is above 200 µM; in series [4] (setting [6]), above 200 µM; in series [4] (setting [7]), 62 µM (≈ 278 µg/mL); in series [4] (setting [8]), 164 µM (≈ 734 µg/mL); in series [4] (setting [9]), 181 µM (≈ 810 µg/mL); in series [4] (setting [10]) it was above 200 µM. Moreover, the solubility at 18 h in series [4] (setting [11]) and in series [4] (setting [12]) was above 200 µM in each case. The “Solubility pH 4.0 (μM)” value in series [4] (pH 4.0, 18 hours at room temperature, Table 2) is reported as above 200 μM. For the same molecule, in series [4] (pH 7.0, 18 hours at room temperature, Table 3), the “Solubility pH 7.0 (μM)” value is above 200 μM.
For the molecule `CC[C@H](C)[C@H](NC(=O)[C@@H]1CCCN1C(=O)CNC(=O)[C@H](Cc1ccccc1)NC(=O)[C@H](CC(N)=O)NC(=O)[C@H](CC(=O)O)NC(=O)[C@H](CO)NC(=O)[C@H](CO)NC(=O)[C@H](Cc1c[nH]cn1)NC(=O)[C@H](Cc1c[nH]cn1)NC(=O)[C@H](CC(C)C)NC(=O)[C@H](Cc1ccccc1)NC(=O)[C@H](CCC(=O)O)NC(=O)[C@H](C)NC(=O)[C@H](CC(C)C)NC(=O)[C@H](CCCNC(=N)N)NC(=O)[C@H](CCC(N)=O)NC(=O)[C@@H](NC(=O)[C@H](C)NC(=O)[C@@H]1CSSC[C@H](NC(=O)[C@H](CCCCN)NC(=O)CC[C@H](NC(=O)CCCCCCCCCCCCCCCCCCC(=O)O)C(=O)O)C(=O)N[C@@H](CC(N)=O)C(=O)N[C@@H]([C@@H](C)O)C(=O)N[C@@H](C)C(=O)N[C@@H]([C@@H](C)O)C(=O)N1)[C@@H](C)O)C(=O)N[C@@H](CC(C)C)C(=O)N1CCC[C@H]1C(=O)N1CCC[C@H]1C(=O)N[C@H](C(=O)N[C@@H](CC(N)=O)C(=O)N[C@H](C(=O)NCC(=O)N[C@@H](CO)C(=O)N[C@@H](Cc1c[nH]cn1)C(=O)N[C@H](C(=O)N[C@@H](Cc1ccc(O)cc1)C(N)=O)[C@@H](C)O)C(C)C)[C@@H](C)O` [Example 128, N-alpha-[(S)-4-Carboxy-4-(19-carboxynonadecanoylamino)butyryl]-[Glu14,His17,Asp21,His35]-pramlintide] ({C20 diacid-γGlu}-KCNTATCATQRLAEFLHHSSDNFGPILPPTNVGSHTY-NH2; disulfide 2-7 (inferred); C-terminus assumed), the results for the concentration for a half-maximal effect (EC50) in series [1] and in series [3] were 0.266 nM and 0.291 nM, respectively. In addition, the “ThT pH 4.0 lag time” value in series [2] is listed as above 45 h. The “ThT pH 4.0 lag time (h)” value in series [2] is reported as above 45 h. Also, the solubility at 18 h in series [4] (setting [5]) is above 200 µM; in series [4] (pH 4.0, 18 hours at room temperature, Table 2, read-out: Solubility pH 4.0), above 200 µM; in series [4] (setting [6]), above 200 µM; in series [4] (setting [7]) it was above 200 µM; in series [4] (setting [8]), above 200 µM; in series [4] (setting [9]), 114 µM (≈ 511 µg/mL). In addition, the solubility at 18 h in series [4] (pH 7.0, 18 hours at room temperature, Table 3, read-out: Solubility pH 7.0) was 140 µM (≈ 627 µg/mL); in series [4] (setting [10]), 140 µM (≈ 627 µg/mL); in series [4] (setting [11]) it was above 200 µM; in series [4] (setting [12]), above 200 µM.
`CC[C@H](C)[C@H](NC(=O)[C@@H]1CCCN1C(=O)CNC(=O)[C@H](Cc1ccccc1)NC(=O)[C@H](CC(N)=O)NC(=O)[C@H](CC(N)=O)NC(=O)[C@H](CO)NC(=O)[C@H](CO)NC(=O)[C@H](Cc1c[nH]cn1)NC(=O)[C@H](Cc1c[nH]cn1)NC(=O)[C@H](CC(C)C)NC(=O)[C@H](Cc1ccccc1)NC(=O)[C@H](CCC(=O)O)NC(=O)[C@H](C)NC(=O)[C@H](CC(C)C)NC(=O)[C@H](CCCNC(=N)N)NC(=O)[C@H](CCC(N)=O)NC(=O)[C@@H](NC(=O)[C@H](C)NC(=O)[C@@H]1CSSC[C@H](NC(=O)[C@H](CCCCN)NC(=O)[C@H](Cc2c[nH]cn2)NC(=O)CC[C@H](NC(=O)CCCCCCCCCCCCCCCCC(=O)O)C(=O)O)C(=O)N[C@@H](CC(N)=O)C(=O)N[C@@H]([C@@H](C)O)C(=O)N[C@@H](C)C(=O)N[C@@H]([C@@H](C)O)C(=O)N1)[C@@H](C)O)C(=O)N[C@@H](CC(C)C)C(=O)N1CCC[C@H]1C(=O)N1CCC[C@H]1C(=O)N[C@H](C(=O)N[C@@H](CC(N)=O)C(=O)N[C@H](C(=O)NCC(=O)N[C@@H](CO)C(=O)N[C@@H](Cc1c[nH]cn1)C(=O)N[C@H](C(=O)N[C@@H](Cc1ccc(O)cc1)C(N)=O)[C@@H](C)O)C(C)C)[C@@H](C)O` [Example 70, N-alpha-[(S)-4-Carboxy-4-(17-carboxyheptadecanoylamino)butyryl]-His-[Glu14,His17,His35]-pramlintide] ({C18 diacid-γGlu}-HKCNTATCATQRLAEFLHHSSNNFGPILPPTNVGSHTY-NH2; disulfide 3-8 (inferred); C-terminus assumed): the EC50 in series [1] came out at 0.099 nM; in series [3] it was 0.0585 nM. Besides, the “ThT pH 4.0 lag time” value in series [2] was above 45 h. Besides, in series [2], the “ThT pH 4.0 lag time (h)” value was above 45 h. For the same molecule, the solubility at 18 h in series [4] (bistrispropane buffer, pH 6, pH 6.0, read-out: Solubility pH 6.0) is above 200 µM; in series [4] (bistrispropane buffer, pH 6.5, pH 6.5, read-out: Solubility pH 6.5), 69 µM (≈ 317 µg/mL); in series [4] (bistrispropane buffer, pH 7, pH 7.0, read-out: Solubility pH 7.0) it was 32 µM (≈ 147 µg/mL); in series [4] (bistrispropane buffer, pH 7.5, pH 7.5, read-out: Solubility pH 7.5), 52 µM (≈ 239 µg/mL); in series [4] (bistrispropane buffer, pH 8, pH 8.0, read-out: Solubility pH 8.0), 89 µM (≈ 408 µg/mL); in series [4] (glycylglycine buffer, pH 3, pH 3.0, read-out: Solubility pH 3.0), above 200 µM. Moreover, the solubility at 18 h in series [4] (glycylglycine buffer, pH 4, pH 4.0, 18 hours at room temperature, Table 2, read-out: Solubility pH 4.0) is above 200 µM; in series [4] (glycylglycine buffer, pH 4, pH 4.0, read-out: Solubility pH 4.0) it was above 200 µM; in series [4] (glycylglycine buffer, pH 5, pH 5.0, read-out: Solubility pH 5.0) it was above 200 µM.

These data come from US8722849B2, “Polypeptides” (Novo Nordisk A/S, priority 2011, dated 2014).
